Test results taken from publication PMC6470533, “Structure–Activity Study, Characterization, and Mechanism of Action of an Antimicrobial Peptoid D2 and Its D- and L-Peptide Analogues” (Molecules, 2019).
Values after ≈ are worked out from the molar mass of the structure shown. Non-standard residues stand in square brackets, D forms with d. Residues, ends and D or L forms follow the SMILES beside them. N(1-naphthylmethyl)Gly = O=C(O)CNCc1cccc2ccccc12; N(4-MeBn)Gly = Cc1ccc(CNCC(=O)O)cc1; NBuGly = CCCCNCC(=O)O; Nlys = NCCCCNCC(=O)O

Experiments:
[1] = test system: Methicillin sensitive Staphylococcus pseudintermedius (26916); format: cell-based; conditions: 18 h
[2] = test system: Methicillin resistant Staphylococcus pseudintermedius, (C22963); format: cell-based; conditions: 18 h
[3] = test system: Staphylococcus aureus (ATCC 29213); format: cell-based; conditions: ATCC 29213, 18 h
[4] = test system: Acinetobacter baumannii, 27065; format: cell-based; conditions: 27065, 18 h
[5] = test system: Corynebacterium auriscanis, 31551; format: cell-based; conditions: 18 h
[6] = test system: Enterococcus faecalis, 27404; format: cell-based; conditions: 27404, 18 h
[7] = test system: Enterococcus faecium, 30951; format: cell-based; conditions: 30951, 18 h
[8] = test system: Klebsiella pneumoniae, 26233; format: cell-based; conditions: 26233, 18 h
Proteus mirabilis, 25178 = format: cell-based; conditions: 25178, 18 h
[9] = test system: Pseudomonas aeruginosa (ATCC 27853); format: cell-based; conditions: ATCC 27853, 18 h
Procedure, shortened: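 Colonies grown 18 h at 37 °C on agar were adjusted to ~1 × 10^8 CFU/mL in MHB, then added to two-fold compound dilutions in MHB II at a final 5 × 10^5 CFU/mL. Plates incubated 18 h at 37 °C, ambient air. MIC read visually as lowest concentration preventing growth.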

E. coli, 30235 = format: cell-based, Escherichia coli; conditions: 30235, 18 h
Description: (§1) To explore the antimicrobial activity of the library of peptides and peptidomimetics, they were tested against Acinetobacter baumannii, Corynebacterium auriscanis, Escherichia coli, Enterococcus faecalis, Enterococcus faecium, Klebsiella pneumonia, Proteus mirabilis, and Pseudomonas aeruginosa. Bacteria grown on agar plates for 18 h at 37 °C were diluted to ~1 × 10^8 CFU/mL in Mueller–Hinton broth (MHB). Two-fold serial dilutions of peptides and peptidomimetics in MHB II were inoculated with bacteria to achieve a final concentration of 5 × 10^5 CFU/mL in polypropylene 96 U-well microtiter plates (Almeco, Esbjerg, Denmark), followed by incubation at 37 °C in ambient air for 18 h. The MIC values were determined as the lowest concentration showing no visible bacterial growth. Experiments were performed twice (in technical triplicates) on two different days.

[10] = test system: clinical MRSP strain C22963; test: Time–kill kinetics; format: cell-based, Staphylococcus pseudintermedius; conditions: after 6 h, MRSP C22963, 10^5 CFU/mL in MHB
Description: The time–kill experiments of D2 against the methicillin-resistant S. pseudintermedius strain C22963 were performed using an in-house protocol adopted and modified from Blondeau et al.: the bacterium was grown overnight on a blood agar plate. The next day, an inoculum was transferred to MHB and incubated for 2 h at 37 °C to reach exponential growth phase. […] Aliquots were removed at 1 h intervals up to 6h and spotted in triplicate on blood agar plates, and incubated overnight at 37 °C. Colonies were counted and CFU per mL was calculated.

[11] = test system: DNA synthesis in MRSP E104; test: Macromolecule biosynthesis assay, DNA (3H-thymidine); format: cell-based, Staphylococcus pseudintermedius; conditions: 0.5× MIC, 20 min incubation, MRSP E104, 3H-thymidine; means of two experiments
Description: (§2) The effect on DNA and cell wall synthesis was investigated after 20 min of incubation of MRSP E104 with the precursors ^3H-thymidine and ^3H-glucosamine hydrochloride, respectively, as previously reported by Ling et al.. Following macromolecule precipitation, radioactivity was counted using scintillation fluid. Incorporation of ^3H- or ^14C-labeled thymidine has been used to investigate DNA replication and transcriptional activity during the cell cycle; ^3H-glucosamine hydrochloride has been used in a mode of action study for the antimicrobial peptide plectasin, which targets the cell wall precursor lipid II [44].
(§3) Macromolecules (DNA and cell wall) biosynthesis rates were measured using strain MRSP E104 following a protocol adapted from Ling et al.. Briefly, overnight culture of E104 was diluted 1:100 in MHB and freshly grown up to OD 0.2 at 600 nm. Grown cells were pelleted down by centrifugation and then resuspended in fresh MHB medium followed by incubation for 20 min on a dry heat-bath with D2 or analogues or nisin and radiolabeled precursor: (50 µCi) ^3H-Thymidine (PerkinElmer) and (5 µCi) ^3H-glucosamine hydrochloride per mL for DNA and cell wall, respectively. A positive control without antimicrobials was maintained that corresponds to 100% synthesis rate. After 20 min of incubation, samples were precipitated with equal volume of cold 30% trichloroactic acid (TCA Sigma, Søborg, Denmark) on ice. After 15 to 30 min of incubation on ice, precipitates were filtered on a membrane filter and subsequently washed twice with cold 15% TCA and twice with cold water using a vacuum manifold. Next, filters were air dried overnight and then moved to 10 mL scintillation vials. Finally, 3 mL scintillation fluid was added to each vial and ^3H count was taken in Beckman Coulter LS6500 liquid scintillation counter for 1 min. The radioactive counts of the control samples with no antimicrobial exposure were considered to have 100% precursor incorporation and macromolecule synthesis. The percentage rates of macromolecule synthesis in the antimicrobial-exposed samples were calculated compared to control. Each experiment was performed twice with a technical replicate, and the average rates of synthesis were plotted.

[12] = test system: cell wall synthesis in MRSP E104; test: Macromolecule biosynthesis assay, cell wall (3H-glucosamine hydrochloride); format: cell-based, Staphylococcus pseudintermedius; conditions: 0.5× MIC, 20 min incubation, MRSP E104, 3H-glucosamine hydrochloride; means of two experiments
Description: as §2, §3

S. aureus = test: MIC against canine clinical S. aureus strains (Table S2); format: cell-based, Staphylococcus aureus
Description: (§4) Similarly, in this study, to assess the degree of selectivity for S. pseudintermedius, D2 and D2D were tested against a collection of S. aureus and MSSP strains (Table S2).
as §1

S. pseudintermedius = test: MIC against canine clinical S. pseudintermedius strains (Table S2); format: cell-based, Staphylococcus pseudintermedius
Description: as §4, §1

`CCCCN(CC(N)=O)C(=O)CN(CCCCN)C(=O)CN(Cc1cccc2ccccc12)C(=O)CN(CCCCN)C(=O)CN(Cc1ccc(C)cc1)C(=O)CN(Cc1cccc2ccccc12)C(=O)CN(CCCCN)C(=O)CNCCCCN` [D2] (H-[Nlys][Nlys][N(1-naphthylmethyl)Gly][N(4-MeBn)Gly][Nlys][N(1-naphthylmethyl)Gly][Nlys][NBuGly]-NH2) was tested, and the “MIC MSSP” value [1] was 2 to 4 µg/mL, the “MIC MRSP” value [2] was 4 µg/mL (≈ 3.34 µM) and the “MIC SA” value [3] was 8 µg/mL (≈ 6.67 µM). For the same compound, the “MIC Acinetobacter baumannii” value [4] was over 64 µg/mL, the “MIC Corynebacterium auriscanis” value [5] was 2 µg/mL (≈ 1.67 µM) and the “MIC Enterococcus faecalis” value [6] was over 64 µg/mL. The “MIC Enterococcus faecium” value [7] was 16 µg/mL (≈ 13.3 µM), the “MIC Klebsiella pneumoniae” value [8] was over 64 µg/mL and the “MIC Proteus mirabilis” value (Proteus mirabilis, 25178) was over 64 µg/mL. For the same compound, the “MIC PA” value [9] was 16 µg/mL (≈ 13.3 µM), the “MIC E. coli” value (E. coli, 30235) was 64 µg/mL (≈ 53.4 µM) and the “log reduction in time–kill” value ([10]; 1× MIC) was 1.5 log. For the same compound, the “log reduction in time–kill” value ([10]; 2× MIC) was 2.7 log, the “inhibition of DNA biosynthesis rate” value [11] was under 5% and the “effect on (inhibition of) cell wall synthesis” value [12] was 28%. For the same compound, the “MIC S. aureus 25054” value (S. aureus; 25054, 8 G6, dog, wound, 2009) was 4 µg/mL (≈ 3.34 µM), the “MIC S. aureus 27266” value (S. aureus; 27266, 16 G9, dog, skin, 2010) was 8 µg/mL (≈ 6.67 µM) and the “MIC S. aureus 28264” value (S. aureus; 28264, 20 B1, dog, wound, 2011) was 4 µg/mL (≈ 3.34 µM). The “MIC S. aureus 30935” value (S. aureus; 30935, 24 B9, dog, joint, 2013) was 4 µg/mL (≈ 3.34 µM), the “MIC S. aureus 36968” value (S. aureus; 36968, 61 A9, dog, wound, 2016) was 4 µg/mL (≈ 3.34 µM) and the “MIC S. aureus 37595” value (S. aureus; 37595, 65 D2, dog, joint, 2016) was 4 µg/mL (≈ 3.34 µM). The “MIC S. aureus 37708-2” value (S. aureus; 37708-2, 66 C6, dog, skin, 2016) was 8 µg/mL (≈ 6.67 µM), the “MIC S. aureus 38200” value (S. aureus; 38200, 68 E9, dog, skin, 2016) was 4 µg/mL (≈ 3.34 µM) and the “MIC S. aureus 38565-1” value (S. aureus; 38565-1, 70 A5, dog, skin, 2017) was 4 µg/mL (≈ 3.34 µM). The “MIC S. aureus 38841” value (S. aureus; 38841, 70 G5, dog, urine, 2017) was 8 µg/mL (≈ 6.67 µM), the “MIC S. pseudintermedius 22963” value (S. pseudintermedius; 22963, 3 B9, dog, ?, 2007) was 1 to 2 µg/mL and the “MIC S. pseudintermedius 26071” value (S. pseudintermedius; 26071, 11 E5, dog, skin, 2009) was 1 µg/mL (≈ 0.834 µM). For the same compound, the “MIC S. pseudintermedius 26092-2” value (S. pseudintermedius; 26092-2, 11 E4, dog, skin, 2009) was 1 µg/mL (≈ 0.834 µM), the “MIC S. pseudintermedius 26959” value (S. pseudintermedius; 26959, 15 F8, dog, wound, 2010) was 2 µg/mL (≈ 1.67 µM) and the “MIC S. pseudintermedius 27364” value (S. pseudintermedius; 27364, 17 A7, dog, wound, 2011) was 1 µg/mL (≈ 0.834 µM). The “MIC S. pseudintermedius 27382” value (S. pseudintermedius; 27382, 17 B8, dog, ear, 2011) was 1 µg/mL (≈ 0.834 µM), the “MIC S. pseudintermedius 31524” value (S. pseudintermedius; 31524, 54 C3, dog, ear, 2013) was 1 µg/mL (≈ 0.834 µM) and the “MIC S. pseudintermedius 33228” value (S. pseudintermedius; 33228, 55 E2, dog, skin, 2014) was 1 µg/mL (≈ 0.834 µM). The “MIC S. pseudintermedius 35890” value (S. pseudintermedius; 35890, 59 B8, dog, ear, 2015) was 1 µg/mL (≈ 0.834 µM), the “MIC S. pseudintermedius 37526-1” value (S. pseudintermedius; 37526-1, 65 B4, dog, skin, 2016) was 1 µg/mL (≈ 0.834 µM) and the “MIC S. pseudintermedius 37535-1” value (S. pseudintermedius; 37535-1, 65 B6, dog, skin, 2016) was 1 µg/mL (≈ 0.834 µM). The “MIC S. pseudintermedius 38637” value (S. pseudintermedius; 38637, 70 C3, dog, wound 2017) was 1 µg/mL (≈ 0.834 µM) and the “MIC S. pseudintermedius 38820” value (S. pseudintermedius; 38820, 70 F9, dog, urine 2017) was 1 µg/mL (≈ 0.834 µM).
